Measurements taken from the NIST ThermoML archive (doi:10.1016/j.fluid.2014.02.004).

Assay: osmotic coefficient (dimensionless); mn = molality of the nth substance listed, in mol/kg
Settings: 298.15 K, 101 kPa, Liquid, isopiestic method

NCCC(=O)O [3-aminopropanoic acid] + O
Settings | osmotic coefficient
m1 = 0.1408 | 0.9912
m1 = 0.2482 | 0.9892
m1 = 0.335 | 0.988
m1 = 0.452 | 0.9882
m1 = 0.6148 | 0.9901
m1 = 0.6813 | 0.9905
m1 = 0.9542 | 0.9934
m1 = 1.43 | 1.0056

NCCCC(=O)O [4-aminobutanoic acid] + O
Settings | osmotic coefficient
m1 = 0.1412 | 0.9884
m1 = 0.249 | 0.986
m1 = 0.3355 | 0.9866
m1 = 0.453 | 0.986
m1 = 0.6155 | 0.9889
m1 = 0.6809 | 0.991
m1 = 0.944 | 1.0041
m1 = 1.402 | 1.026

NCCCCC(=O)O [5-aminovaleric acid] + O
Settings | osmotic coefficient
m1 = 0.1414 | 0.987
m1 = 0.2493 | 0.9848
m1 = 0.3362 | 0.9845
m1 = 0.4531 | 0.9858
m1 = 0.618 | 0.9849
m1 = 0.6834 | 0.9874
m1 = 0.9461 | 1.0019
m1 = 1.397 | 1.029

NCCCCCC(=O)O [6-aminohexanoic acid] + O
Settings | osmotic coefficient
m1 = 0.1411 | 0.9889
m1 = 0.2493 | 0.9848
m1 = 0.3366 | 0.9833
m1 = 0.4538 | 0.9843
m1 = 0.617 | 0.9865
m1 = 0.6826 | 0.9886
m1 = 0.9388 | 1.0097
m1 = 1.388 | 1.036
